Results published in patent US6737383B1, “Herbicidal oxadiazolidines” (priority 1999, dated 2004).

Tests used:
bedstraw = experiment: Test B pre/postemergence bedstraw; type: in vivo, Galium aparine
In short: (§1)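 Herbicidal effect was estimated by eye on a ten-point control scale after plants spent twelve to sixteen days in a greenhouse following soil or foliar treatment. Foliar sprays targeted plants at one to four leaves; all doses were formulated in a non-phytotoxic solvent with surfactant.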

blackgrass = experiment: Test B pre/postemergence blackgrass; type: in vivo, Alopecurus myosuroides
In short: as §1

surinam grass = experiment: Test B pre/postemergence surinam grass; type: in vivo, Brachiaria decumbens
In short: as §1

cocklebur = experiment: Test B pre/postemergence cocklebur; type: in vivo, Xanthium strumarium
In short: as §1

corn = experiment: Test B pre/postemergence corn; type: in vivo, Zea mays
In short: as §1

crabgrass = experiment: Test B pre/postemergence crabgrass; type: in vivo, Digitaria sanguinalis
In short: as §1

giant foxtail = experiment: Test B pre/postemergence giant foxtail; type: in vivo, Setaria faberii
In short: as §1

morningglory = experiment: Test B pre/postemergence morningglory; type: in vivo, Ipomoea hederacea
In short: as §1

pigweed = experiment: Test B pre/postemergence pigweed; type: in vivo, Amaranthus retroflexus
In short: as §1

rape = experiment: Test B pre/postemergence rape; type: in vivo, Brassica napus
In short: as §1

soybean = experiment: Test B pre/postemergence soybean; type: in vivo, Glycine max
In short: as §1

sugar beet = experiment: Test B pre/postemergence sugar beet; type: in vivo, Beta vulgaris
In short: as §1

velvetleaf = experiment: Test B pre/postemergence velvetleaf; type: in vivo, Abutilon theophrasti
In short: as §1

wheat = experiment: Test B pre/postemergence wheat; type: in vivo, Triticum aestivum
In short: as §1

wild oat = experiment: Test B pre/postemergence wild oat; type: in vivo, Avena fatua
In short: as §1

purple nutsedge = experiment: Test B pre/postemergence purple nutsedge; type: in vivo, Cyperus rotundus; conditions: Rate 62 g/ha
In short: as §1

[1] = Postemergence, Rate 250 g/ha, scale 0 to 10
[2] = Preemergence, Rate 62 g/ha, scale of 0 to 10 where 0 is no effect and 10 is complete control
[3] = Preemergence, Rate 125 g/ha, scale 0 to 10, 0 is no effect, 10 is complete control
[4] = Preemergence, Rate 250 g/ha, scale 0 to 10, 0 is no effect, 10 is complete control
[5] = Preemergence, Rate 500 g/ha, scale 0 to 10, 0 is no effect, 10 is complete control
[6] = Postemergence, Rate 62 g/ha, scale of 0 to 10, 0 is no effect, 10 is complete control
[7] = Postemergence, Rate 125 g/ha, scale 0 to 10, 0 is no effect, 10 is complete control
[8] = Postemergence, Rate 500 g/ha, scale 0 to 10, 0 is no effect, 10 is complete control
[9] = Preemergence, Rate 500 g/ha, scale of 0 to 10 where 0 is no effect and 10 is complete control

For `CCN(CC)C(=O)Cn1c(=O)on(C(=O)N(c2ccc(F)cc2F)C(C)C)c1=O` [Compound 512], the “Bedstraw plant response rating” value (bedstraw; [1]) was 7, the “Plant response rating, Bedstraw” value (bedstraw; [2]) was 0 and the “Bedstraw plant response rating” value (bedstraw; [3]) was 0. The “Bedstraw plant response rating” value (bedstraw; [4]) was 0, the “Bedstraw plant response rating” value (bedstraw; [5]) was 3 and the “Blackgrass plant response rating” value (blackgrass; [6]) was 2. For the same compound, the “Blackgrass plant response rating” value (blackgrass; [7]) was 3, the “Blackgrass plant response rating” value (blackgrass; [1]) was 6 and the “Plant response rating, Blackgrass” value (blackgrass; [8]) was 6. The “Plant response rating, Blackgrass” value (blackgrass; [2]) was 0, the “Blackgrass plant response rating” value (blackgrass; [3]) was 2 and the “Blackgrass plant response rating” value (blackgrass; [4]) was 9. The “Blackgrass plant response rating” value (blackgrass; [9]) was 10, the “B. signalgrass plant response rating” value (surinam grass; [6]) was 0 and the “B. signalgrass plant response rating” value (surinam grass; [7]) was 1. For the same compound, the “B. signalgrass plant response rating” value (surinam grass; Postemergence, Rate 250 g/ha, scale 0 to 10, 0 no effect, 10 complete control) was 4, the “Plant response rating, B. signalgrass” value (surinam grass; [8]) was 5 and the “Plant response rating, B. signalgrass” value (surinam grass; [2]) was 3. For the same compound, the “B. signalgrass plant response rating” value (surinam grass; [3]) was 8, the “B. signalgrass plant response rating” value (surinam grass; [4]) was 10 and the “B. signalgrass plant response rating” value (surinam grass; [5]) was 10. The “Cocklebur plant response rating” value (cocklebur; [6]) was 0, the “Cocklebur plant response rating” value (cocklebur; [7]) was 2 and the “Cocklebur plant response rating” value (cocklebur; [1]) was 3. The “Plant response rating, Cocklebur” value (cocklebur; [8]) was 7, the “Plant response rating, Cocklebur” value (cocklebur; [2]) was 0 and the “Cocklebur plant response rating” value (cocklebur; [3]) was 0. For the same compound, the “Cocklebur plant response rating” value (cocklebur; [4]) was 0, the “Cocklebur plant response rating” value (cocklebur; [9]) was 0 and the “Corn plant response rating” value (corn; [6]) was 0. The “Corn plant response rating” value (corn; [7]) was 0, the “Corn plant response rating” value (corn; [1]) was 0 and the “Plant response rating, Corn” value (corn; [8]) was 0. The “Plant response rating, Corn” value (corn; [2]) was 0, the “Corn plant response rating” value (corn; [3]) was 0 and the “Corn plant response rating” value (corn; [9]) was 3. The “Crabgrass plant response rating” value (crabgrass; [6]) was 2, the “Crabgrass plant response rating” value (crabgrass; [7]) was 2 and the “Crabgrass plant response rating” value (crabgrass; [1]) was 5. The “Plant response rating, Crabgrass” value (crabgrass; [8]) was 9, the “Plant response rating, Crabgrass” value (crabgrass; [2]) was 3 and the “Crabgrass plant response rating” value (crabgrass; [3]) was 7. The “Crabgrass plant response rating” value (crabgrass; [9]) was 9, the “Giant foxtail plant response rating” value (giant foxtail; [6]) was 2 and the “Giant foxtail plant response rating” value (giant foxtail; [7]) was 3. The “Plant response rating, Giant foxtail” value (giant foxtail; [8]) was 8, the “Plant response rating, Giant foxtail” value (giant foxtail; [2]) was 5 and the “Giant foxtail plant response rating” value (giant foxtail; [3]) was 9. For the same compound, the “Giant foxtail plant response rating” value (giant foxtail; [9]) was 10, the “Morningglory plant response rating” value (morningglory; [6]) was 5 and the “Morningglory plant response rating” value (morningglory; [7]) was 5. The “Plant response rating, Morningglory” value (morningglory; [8]) was 7, the “Plant response rating, Morningglory” value (morningglory; [2]) was 0 and the “Morningglory plant response rating” value (morningglory; [3]) was 0. The “Morningglory plant response rating” value (morningglory; [9]) was 0, the “Redroot pigweed plant response rating” value (pigweed; [6]) was 1 and the “Redroot pigweed plant response rating” value (pigweed; [7]) was 7. For the same compound, the “Plant response rating, Redroot pigweed” value (pigweed; [8]) was 9, the “Plant response rating, Redroot pigweed” value (pigweed; [2]) was 3 and the “Redroot pigweed plant response rating” value (pigweed; [3]) was 9. The “Redroot pigweed plant response rating” value (pigweed; [9]) was 10, the “Rape plant response rating” value (rape; [6]) was 0 and the “Rape plant response rating” value (rape; [7]) was 0. For the same compound, the “Plant response rating, Rape” value (rape; [8]) was 0, the “Plant response rating, Rape” value (rape; [2]) was 0 and the “Rape plant response rating” value (rape; [3]) was 0. The “Rape plant response rating” value (rape; [9]) was 5, the “Soybean plant response rating” value (soybean; [6]) was 4 and the “Soybean plant response rating” value (soybean; [7]) was 4. For the same compound, the “Plant response rating, Soybean” value (soybean; [8]) was 7, the “Plant response rating, Soybean” value (soybean; [2]) was 0 and the “Soybean plant response rating” value (soybean; [3]) was 0. For the same compound, the “Soybean plant response rating” value (soybean; [9]) was 0, the “Sugarbeets plant response rating” value (sugar beet; [6]) was 0 and the “Sugarbeets plant response rating” value (sugar beet; [7]) was 0. For the same compound, the “Plant response rating, Sugarbeets” value (sugar beet; [8]) was 7, the “Plant response rating, Sugarbeets” value (sugar beet; [2]) was 0 and the “Sugarbeets plant response rating” value (sugar beet; [3]) was 0. For the same compound, the “Sugarbeets plant response rating” value (sugar beet; [9]) was 5, the “Velvetleaf plant response rating” value (velvetleaf; [6]) was 0 and the “Velvetleaf plant response rating” value (velvetleaf; [7]) was 0. For the same compound, the “Plant response rating, Velvetleaf” value (velvetleaf; [8]) was 1, the “Plant response rating, Velvetleaf” value (velvetleaf; [2]) was 0 and the “Velvetleaf plant response rating” value (velvetleaf; [3]) was 0. The “Velvetleaf plant response rating” value (velvetleaf; [9]) was 0, the “Wheat plant response rating” value (wheat; [6]) was 0 and the “Wheat plant response rating” value (wheat; [7]) was 0. For the same compound, the “Plant response rating, Wheat” value (wheat; [8]) was 2, the “Plant response rating, Wheat” value (wheat; [2]) was 0 and the “Wheat plant response rating” value (wheat; [3]) was 2. The “Wheat plant response rating” value (wheat; [9]) was 6, the “Wild oats plant response rating” value (wild oat; [6]) was 0 and the “Wild oats plant response rating” value (wild oat; [7]) was 0. The “Plant response rating, Wild oats” value (wild oat; [8]) was 1, the “Plant response rating, Wild oats” value (wild oat; [2]) was 2 and the “Wild oats plant response rating” value (wild oat; [3]) was 2. For the same compound, the “Wild oats plant response rating” value (wild oat; [9]) was 10, the “Nutsedge plant response rating” value (purple nutsedge; Postemergence, scale of 0 to 10, 0 is no effect, 10 is complete control) was 0 and the “Plant response rating, Nutsedge” value (purple nutsedge; Preemergence, scale of 0 to 10 where 0 is no effect and 10 is complete control) was 0.
